The text below walks through data of US6028092A, “Salts of N-(4-Oxo-2-(1H-tetrazoyl-5-yl)-4H-1-benzopyran-8-yl)-4-(4-phenylbutoxy)b enzamide” (SmithKline Beecham p.l.c, priority 1995, dated 2000).

A short description of series [1]: Solubility of Compound 1 salts in water, ethanol and PEG 400. It counts as physicochemical.
For series [2] the following is noted: rat, in vivo, po.
Series [3] is described as follows: In-situ solubilisation: solubility of Compound 1 in 50% acetate solution (0.1M) / 50% ethanol. It counts as physicochemical. The protocol:
Although the salts of Compound 1 are freely soluble in solvents such as ethanol further improvements have been observed when the salts are prepared in situ.
Solubility of Compound 1 in 50% Acetate Solution (0.1M) and 50%
(§1) In the presence of excess acetate the salts formed in situ are freely soluble even in an aqueous alcoholic medium with a water content of 50%. With lower water contents or in the absence of water the solubility can be improved further. For example when PEG 200 (30 mL) sodium acetate (2.5 g) and Compound 1 (7.4 g) were triturated in a mortar and pestle the sodium salt of Compound 1 formed in-situ was solubilised to a concentration greater than 200 g/l.

Series [4] in a line: Solubility of Compound 1 in 50% solvent systems/50% sodium phosphate (pH7) at different molarities. It counts as physicochemical. The procedure:
The scope of in-situ solubilisation in terms of solvent type and buffer concentration can be seen in Table 4. In these experiments the sodium salt of Compound 1 was prepared through the presence of varying concentrations of sodium phosphate buffer solution with 50% of the test solvent.
Solubility of Compound 1 in 50% solvent systems/50% sodium
phosphate (pH7) at different molarities
No value was obtained for those N/T samples because the solvents were immiscible with the buffer solution at those concentrations.

Series [5] can be described thus: Solubility of Compound 1 in 50% 0.1M salt solution (pH7)/50% absolute alcohol. The class given is physicochemical. The text has this:
Solubility of Compound 1 in 50% 0.1M salt solution (pH7)/50%

The nature of series [6]: In-situ solubilisation of sodium salt of Compound 1 in PEG 200 by trituration with sodium acetate. The class given is physicochemical. The conditions noted are these: organic solvent or mixture; PEG 200 (30 mL), sodium acetate (2.5 g), Compound 1 (7.4 g); read-out: concentration solubilised in-situ. The procedure:
as §1

Converted amounts (≈) assume the structure as drawn. Like-named read-outs stand apart in the source and are kept apart here.

As to `O=C(Nc1cccc2c(=O)cc(-c3nnn[nH]3)oc12)c1ccc(OCCCCc2ccccc2)cc1` [Ammonium], in series [1] (PEG 400), the “Solubility in PEG 400” value is greater than 10 g/L. In series [1], the Solubility in ethanol was 9.33 g/L. Besides, the Solubility in water in series [1] (water) was 0.28 g/L. The bioavailability in the series “in vivo” (rat, in vivo, po, 20 mg/kg, absolute bioavailability) was roughly 7%. In series [2], the “absorption, in words” value is listed as “reasonably well absorbed” and the “increase of absolute bioavailability relative to the parent acid” value is recorded as “approximately tenfold”. In addition, in series [2] (20 mg/kg), the “AUC)-t or infinity” value worked out at 81490.5 ± 23670.3 µg·min/mL, the BA was 7.15 ± 2.08%, the CMAX was found to be 548.5 ± 165.7 ng/mL and the TMAX is given as 53.1 ± 29.8 min. In series [2] (80 mg/kg), the “AUC)-t or infinity” value is on record as 66722.9 ± 16472.6, the BA is given as 1.46 ± 0.36%, the CMAX was found to be 264.5 ± 64.06 ng/mL and the TMAX is on record as 150.5 ± 34.1 min.
As to `O=C(Nc1cccc2c(=O)cc(-c3nnn[nH]3)oc12)c1ccc(OCCCCc2ccccc2)cc1` [Calcium], in series [1] (PEG 400), the “Solubility in PEG 400” value was determined as 8.42 g/L. The Solubility in ethanol in series [1] was determined as 0.36 g/L.
For the compound `O=C(Nc1cccc2c(=O)cc(-c3nnn[nH]3)oc12)c1ccc(OCCCCc2ccccc2)cc1` [Compound 1, N-[4-Oxo-2-(1H-tetrazol-5-yl)-4H-1-benzopyran-8-yl]-4-(4-phenylbutoxy)benzamide], the solubility in series [1] (water, aqueous, free acid, read-out: aqueous solubility of Compound 1 free acid) was less than 10 µg/mL; in series [3] (0.1m ammonium acetate/ethanol 50:50, organic solvent or mixture, ammonium acetate 0.1M 50% / ethanol 50%), 11.5 mg/mL (≈ 23.9 mM); in series [3] (0.1m calcium acetate/ethanol 50:50, organic solvent or mixture, calcium acetate 0.1M 50% / ethanol 50%), 0.4 mg/mL (≈ 0.831 mM); in series [3] (0.1m potassium acetate/ethanol 50:50, organic solvent or mixture, potassium acetate 0.1M 50% / ethanol 50%), 12.2 mg/mL (≈ 25.3 mM); in series [3] (0.1m sodium acetate/ethanol 50:50, organic solvent or mixture, sodium acetate 0.1M 50% / ethanol 50%), 11 mg/mL (≈ 22.8 mM); in series [4] (50% ethanol/0.1m sodium phosphate, pH 7, organic solvent or mixture, 50% ethanol / 50% sodium phosphate pH7, 0.1M), 16.2 mg/mL (≈ 33.6 mM). Besides, the solubility turned out to be 0.2 mg/mL (≈ 0.415 mM) in series [4] (50% glycerol/0.1m sodium phosphate, pH 7, organic solvent or mixture, 50% glycerol / 50% sodium phosphate pH7, 0.1M); 0.05 mg/mL (≈ 0.104 mM) in series [4] (50% glycerol/0.25m sodium phosphate, pH 7, organic solvent or mixture, 50% glycerol / 50% sodium phosphate pH7, 0.25M); 0.04 mg/mL (≈ 0.0831 mM) in series [4] (50% glycerol/0.5m sodium phosphate, pH 7, organic solvent or mixture, 50% glycerol / 50% sodium phosphate pH7, 0.5M); 19.5 mg/mL (≈ 40.5 mM) in series [4] (50% glycofurol/0.1m sodium phosphate, pH 7, 50% glycofurol / 50% sodium phosphate pH7, 0.1M); 2.2 mg/mL (≈ 4.57 mM) in series [4] (50% methanol/0.1m sodium phosphate, pH 7, organic solvent or mixture, 50% methanol / 50% sodium phosphate pH7, 0.1M); 1.1 mg/mL (≈ 2.28 mM) in series [4] (50% methanol/0.25m sodium phosphate, pH 7, organic solvent or mixture, 50% methanol / 50% sodium phosphate pH7, 0.25M). Further, the solubility in series [4] (50% methanol/0.5m sodium phosphate, pH 7, organic solvent or mixture, 50% methanol / 50% sodium phosphate pH7, 0.5M) was 0.9 mg/mL (≈ 1.87 mM); in series [4] (50% n-propanol/0.1m sodium phosphate, pH 7, organic solvent or mixture, 50% n-propanol / 50% sodium phosphate pH7, 0.1M), 18 mg/mL (≈ 37.4 mM); in series [4] (50% n-propanol/0.25m sodium phosphate, pH 7, organic solvent or mixture, 50% n-propanol / 50% sodium phosphate pH7, 0.25M), 43.1 mg/mL (≈ 89.5 mM); in series [4] (50% n-propanol/0.5m sodium phosphate, pH 7, organic solvent or mixture, 50% n-propanol / 50% sodium phosphate pH7, 0.5M), 56.3 mg/mL (≈ 117 mM); in series [4] (50% peg 400/0.1m sodium phosphate, pH 7, organic solvent or mixture, 50% PEG 400 / 50% sodium phosphate pH7, 0.1M), 20.5 mg/mL (≈ 42.6 mM); in series [4] (50% peg 400/0.25m sodium phosphate, pH 7, organic solvent or mixture, 50% PEG 400 / 50% sodium phosphate pH7, 0.25M), 23.7 mg/mL (≈ 49.2 mM). The solubility is 26.6 mg/mL (≈ 55.2 mM) in series [4] (50% peg 400/0.5m sodium phosphate, pH 7, organic solvent or mixture, 50% PEG 400 / 50% sodium phosphate pH7, 0.5M); 1.7 mg/mL (≈ 3.53 mM) in series [4] (50% propylene glycol/0.1m sodium phosphate, pH 7, organic solvent or mixture, 50% propylene glycol / 50% sodium phosphate pH7, 0.1M); 0.7 mg/mL (≈ 1.45 mM) in series [4] (50% propylene glycol/0.25m sodium phosphate, pH 7, organic solvent or mixture, 50% propylene glycol / 50% sodium phosphate pH7, 0.25M); 0.5 mg/mL (≈ 1.04 mM) in series [4] (50% propylene glycol/0.5m sodium phosphate, pH 7, organic solvent or mixture, 50% propylene glycol / 50% sodium phosphate pH7, 0.5M); 22.3 mg/mL (≈ 46.3 mM) in series [4] (50% thf/0.1m sodium phosphate, pH 7, organic solvent or mixture, 50% THF / 50% sodium phosphate pH7, 0.1M); 49.3 mg/mL (≈ 102 mM) in series [4] (50% thf/0.25m sodium phosphate, pH 7, organic solvent or mixture, 50% THF / 50% sodium phosphate pH7, 0.25M). In addition, in series [4] (50% thf/0.5m sodium phosphate, pH 7, organic solvent or mixture, 50% THF / 50% sodium phosphate pH7, 0.5M), the solubility turned out to be 101 mg/mL (≈ 210 mM). In “in vivo” (rat, in vivo, iv, 3 mg/kg), this compound registered a half-life of 23.2 ± 28.4 min. Further, the exposure (AUC) in the series “in vivo” (rat, in vivo, iv, 3 mg/kg, AUC)-t or infinity) was 2850 µg·h/mL; in the series “in vivo” (rat, in vivo, po, 80 mg/kg, AUC)-t or infinity), 607 µg·h/mL. The compound also registered a bioavailability in the series “in vivo” (rat, in vivo, po, 80 mg/kg, BA) of 0.8 ± 0.16%. The compound further yielded a CMAX in the series “in vivo” (rat, in vivo, po, 80 mg/kg, CMAX) of 207 ± 57.2 ng/mL. In series [2] (80 mg/kg), this compound registered a TMAX of 22.6 ± 14.9 min.
On to `O=C(Nc1cccc2c(=O)cc(-c3nnn[nH]3)oc12)c1ccc(OCCCCc2ccccc2)cc1` [Ethylenediamine], for which, in series [5], the solubility turned out to be 1.7 mg/mL.
In the case of `O=C(Nc1cccc2c(=O)cc(-c3nnn[nH]3)oc12)c1ccc(OCCCCc2ccccc2)cc1` [Meglumine], the “Solubility in PEG 400” value in series [1] (PEG 400) was 9.20 g/L. In addition, the Solubility in ethanol in series [1] stood at 3.06 g/L. For the same compound, the Solubility in water in series [1] (water) amounted to 0.34 g/L. The TMAX in “in vivo” (rat, in vivo, po, 20 mg/kg, TMAX) was 53.1 min. Moreover, in series [2], the “absorption, in words” value was “evidence of enhanced absorption” and the “increase of absolute bioavailability relative to the parent acid” value was “approximately fourfold”. In series [2] (20 mg/kg), the “AUC)-t or infinity” value is 35290.4 ± 11719.1, the BA is reported as 3.09 ± 1.03% and the CMAX is on record as 207.7 ± 112.2 ng/mL. Further, in series [2] (80 mg/kg), the “AUC)-t or infinity” value came out at 59012.7 ± 17096.3 µg·min/mL, the BA is reported as 1.29 ± 0.37%, the CMAX came out at 263.0 ± 139.5 ng/mL and the TMAX is recorded as 97.5 ± 66.2 min.
Regarding `O=C(Nc1cccc2c(=O)cc(-c3nnn[nH]3)oc12)c1ccc(OCCCCc2ccccc2)cc1` [Sodium], the solubility was greater than 200 mg/mL in series [6] and greater than 10000 µg/mL in series [1] (peg 400, organic solvent or mixture, PEG 400, read-out: Solubility in PEG 400). Also, the Solubility in ethanol in series [1] was greater than 10 g/L. In series [1] (water), the Solubility in water was found to be 0.04 g/L.
With `O=C(Nc1cccc2c(=O)cc(-c3nnn[nH]3)oc12)c1ccc(OCCCCc2ccccc2)cc1` [Tris], in series [5] (50% salt solution/50% ethanol, pH 7, organic solvent or mixture, read-out: Solubility), the solubility is 1.6 mg/mL.
